Reference: patent US7022667B2, “O-derivatized nocathiacin derivatives” (Bristol-Myers Squibb Company, priority 2002, dated 2006)
Converted amounts (≈) assume the structure as drawn.

How the values were obtained:
Test in all cases: MIC, broth micro dilution assay (NCCLS)
Assay type in all cases: cell-based
[1] = system: Enterococcus faecalis A20688; conditions: Mueller-Hinton medium, 35° C., 18 hours
Protocol: (§1) The serial broth dilution method used Mueller-Hinton medium except for the Streptococcus pneumoniae which was tested in 50% Mueller-Hinton medium and 50% Todd Hewitt medium. The final bacterial inoculate contained approximately 5×10^5 cfu/well and was run on microtiter plates. The volume of each well was 100 μL and the plates were incubated at 35° C. for 18 hours in ambient air. The MIC was defined as the lowest drug concentration that prevented visible growth.

[2] = system: Staphylococcus aureus A15090; conditions: Mueller-Hinton medium, 35° C., 18 hours
Protocol: as §1

[3] = system: Streptococcus pneumoniae A28272; conditions: 50% Mueller-Hinton medium and 50% Todd Hewitt medium, 35° C., 18 hours
Protocol: as §1

Row | SMILES | MIC (μg/mL) Enterococcus faecalis A20688 [1] [µg/mL] | MIC (μg/mL) Staphylococcus aureus A15090 [2] [µg/mL] | MIC (μg/mL) Streptococcus pneumoniae A28272 [3] [µg/mL]
1 | C=C(NC(=O)c1csc(-c2nc3c(cc2O)-c2nc(cs2)C(=O)NC(C(C)O)C(=O)NC(=C(C)OC)c2nc(cs2)C(=O)NC2c4nc(cs4)C(=O)NC(COC(=O)c4c5c6c(cccc6n4OCCCNC(=N)N)COC(=O)C(OC4CC(C)(O)C(N(C)C)C(C)O4)C2OC5)c2nc-3cs2)n1)C(N)=O (stereo not drawn) [Example 48] | 2 (≈ 1.3 µM) | 1.0 (≈ 0.651 µM) | 0.03 (≈ 0.0195 µM)
2 | C=C(NC(=O)c1csc(-c2nc3c(cc2O)-c2nc(cs2)C(=O)NC(C(C)O)C(=O)NC(=C(C)OC)c2nc(cs2)C(=O)NC2c4nc(cs4)C(=O)NC(COC(=O)c4c5c6c(cccc6n4OCOP(=O)(OC(C)(C)C)OC(C)(C)C)COC(=O)C(OC4CC(C)(O)C(N(C)C)C(C)O4)C2OC5)c2nc-3cs2)n1)C(N)=O (stereo not drawn) [Example 40] | 0.25 (≈ 0.151 µM) | 0.125 (≈ 0.0753 µM) | 0.015 (≈ 0.00904 µM)
3 | C=C(NC(=O)c1csc(-c2nc3c(cc2O)-c2nc(cs2)C(=O)NC(C(C)O)C(=O)NC(=C(C)OC)c2nc(cs2)C(=O)NC2c4nc(cs4)C(=O)NC(COC(=O)c4c5c6c(cccc6n4OC(C)=O)COC(=O)C(OC4CC(C)(O)C(N(C)C)C(C)O4)C2OC5)c2nc-3cs2)n1)C(N)=O (stereo not drawn) [Example 23] | 0.25 (≈ 0.169 µM) | 0.03 (≈ 0.0203 µM) | 0.06 (≈ 0.0406 µM)
4 | C=C(NC(=O)c1csc(-c2nc3c(cc2O)-c2nc(cs2)C(=O)NC(C(C)O)C(=O)NC(=C(C)OC)c2nc(cs2)C(=O)NC2c4nc(cs4)C(=O)NC(COC(=O)c4c5c6c(cccc6n4OCCN4CCOCC4)COC(=O)C(OC4CC(C)(O)C(N(C)C)C(C)O4)C2OC5)c2nc-3cs2)n1)C(N)=O.O=C(O)C(F)(F)F (stereo not drawn) [Example 27] | 0.06 | 0.25 | 0.015
5 | C=C(NC(=O)c1csc(-c2nc3c(cc2O)-c2nc(cs2)C(=O)NC(C(C)O)C(=O)NC(=C(C)OC)c2nc(cs2)C(=O)NC2c4nc(cs4)C(=O)NC(COC(=O)c4c5c6c(cccc6n4OCc4ccc(C(=O)O)cc4)COC(=O)C(OC4CC(C)(O)C(N(C)C)C(C)O4)C2OC5)c2nc-3cs2)n1)C(N)=O (stereo not drawn) [Example 11] | >128 | 16 (≈ 10.2 µM) | 0.06 (≈ 0.0382 µM)
6 | C=C(NC(=O)c1csc(-c2nc3c(cc2O)-c2nc(cs2)C(=O)NC(C(C)O)C(=O)NC(=C(C)OC)c2nc(cs2)C(=O)NC2c4nc(cs4)C(=O)NC(COC(=O)c4c5c6c(cccc6n4OCCCN)COC(=O)C(OC4CC(C)(O)C(N(C)C)C(C)O4)C2OC5)c2nc-3cs2)n1)C(N)=O (stereo not drawn) [Example 42] | 1.0 (≈ 0.669 µM) | 0.25 (≈ 0.167 µM) | 0.06 (≈ 0.0401 µM)
7 | C=C(NC(=O)c1csc(-c2nc3c(cc2O)-c2nc(cs2)C(=O)NC(C(C)O)C(=O)NC(=C(C)OC)c2nc(cs2)C(=O)NC2c4nc(cs4)C(=O)NC(COC(=O)c4c5c6c(cccc6n4OCCCNS(=O)(=O)N(C)C)COC(=O)C(OC4CC(C)(O)C(N(C)C)C(C)O4)C2OC5)c2nc-3cs2)n1)C(N)=O (stereo not drawn) [Example 49] | 0.25 (≈ 0.156 µM) | 0.5 (≈ 0.312 µM) | 0.007 (≈ 0.00437 µM)
8 | C=C(NC(=O)c1csc(-c2nc3c(cc2O)-c2nc(cs2)C(=O)NC(C(C)O)C(=O)NC(=C(C)OC)c2nc(cs2)C(=O)NC2c4nc(cs4)C(=O)NC(COC(=O)c4c5c6c(cccc6n4OCCCl)COC(=O)C(OC4CC(C)(O)C(N(C)C)C(C)O4)C2OC5)c2nc-3cs2)n1)C(N)=O.Cl (stereo not drawn) [Example 13] | 0.03 | 0.015 | 0.003
9 | C=C(NC(=O)c1csc(-c2nc3c(cc2OCOP(=O)([O-])O)-c2nc(cs2)C(=O)NC(C(C)O)C(=O)NC(=C(C)OC)c2nc(cs2)C(=O)NC2c4nc(cs4)C(=O)NC(COC(=O)c4c5c6c(cccc6n4OCOP(=O)([O-])O)COC(=O)C(OC4CC(C)(O)C(N(C)C)C(C)O4)C2OC5)c2nc-3cs2)n1)C(N)=O.[Na+].[Na+] (stereo not drawn) [Example 22] | 0.25 | 0.125 | 0.015
10 | C=C(NC(=O)c1csc(-c2nc3c(cc2O)-c2nc(cs2)C(=O)NC(C(C)O)C(=O)NC(=C(C)OC)c2nc(cs2)C(=O)NC2c4nc(cs4)C(=O)NC(COC(=O)c4c5c6c(cccc6n4OCC(N)=O)COC(=O)C(OC4CC(C)(O)C(N(C)C)C(C)O4)C2OC5)c2nc-3cs2)n1)C(N)=O (stereo not drawn) [Example 8] | 0.25 (≈ 0.167 µM) | 0.5 (≈ 0.335 µM) | 0.03 (≈ 0.0201 µM)

Further lines, results first:

Row | MIC (μg/mL) Enterococcus faecalis A20688 [1] [µg/mL] | MIC (μg/mL) Staphylococcus aureus A15090 [2] [µg/mL] | MIC (μg/mL) Streptococcus pneumoniae A28272 [3] [µg/mL] | SMILES
11 | >128 | 128 | 8 | C=C(NC(=O)c1csc(-c2nc3c(cc2OCOP(=O)([O-])OC(C)(C)C)-c2nc(cs2)C(=O)NC(C(C)O)C(=O)NC(=C(C)OC)c2nc(cs2)C(=O)NC2c4nc(cs4)C(=O)NC(COC(=O)c4c5c6c(cccc6n4OCOP(=O)([O-])OC(C)(C)C)COC(=O)C(OC4CC(C)(O)C(N(C)C)C(C)O4)C2OC5)c2nc-3cs2)n1)C(N)=O.[Na+].[Na+] (stereo not drawn) [Example 81]
12 | 0.5 (≈ 0.307 µM) | 4.0 (≈ 2.45 µM) | 0.06 (≈ 0.0368 µM) | C=C(NC(=O)c1csc(-c2nc3c(cc2OCC(=O)NCC#N)-c2nc(cs2)C(=O)NC(C(C)O)C(=O)NC(=C(C)OC)c2nc(cs2)C(=O)NC2c4nc(cs4)C(=O)NC(COC(=O)c4c5c6c(cccc6n4OCC(=O)NCC#N)COC(=O)C(OC4CC(C)(O)C(N(C)C)C(C)O4)C2OC5)c2nc-3cs2)n1)C(N)=O (stereo not drawn) [Example 70]
13 | 2.0 (≈ 1.12 µM) | 1.0 (≈ 0.561 µM) | 0.06 (≈ 0.0337 µM) | C=C(NC(=O)c1csc(-c2nc3c(cc2OS(=O)(=O)c2cn(C)cn2)-c2nc(cs2)C(=O)NC(C(C)O)C(=O)NC(=C(C)OC)c2nc(cs2)C(=O)NC2c4nc(cs4)C(=O)NC(COC(=O)c4c5c6c(cccc6n4OCCCNS(=O)(=O)c4cn(C)cn4)COC(=O)C(OC4CC(C)(O)C(N(C)C)C(C)O4)C2OC5)c2nc-3cs2)n1)C(N)=O (stereo not drawn) [Example 87]
14 | 64 (≈ 34.8 µM) | 16 (≈ 8.7 µM) | 0.25 (≈ 0.136 µM) | C=C(NC(=O)c1csc(-c2nc3c(cc2OCC(=O)NCCNC(=O)OC(C)(C)C)-c2nc(cs2)C(=O)NC(C(C)O)C(=O)NC(=C(C)OC)c2nc(cs2)C(=O)NC2c4nc(cs4)C(=O)NC(COC(=O)c4c5c6c(cccc6n4OCC(=O)NCCNC(=O)OC(C)(C)C)COC(=O)C(OC4CC(C)(O)C(N(C)C)C(C)O4)C2OC5)c2nc-3cs2)n1)C(N)=O (stereo not drawn) [Example 69]
15 | 4.0 (≈ 2.4 µM) | 8.0 (≈ 4.8 µM) | 0.007 (≈ 0.0042 µM) | C=C(NC(=O)c1csc(-c2nc3c(cc2OCC(=O)OC(C)(C)C)-c2nc(cs2)C(=O)NC(C(C)O)C(=O)NC(=C(C)OC)c2nc(cs2)C(=O)NC2c4nc(cs4)C(=O)NC(COC(=O)c4c5c6c(cccc6n4OCC(=O)OC(C)(C)C)COC(=O)C(OC4CC(C)(O)C(N(C)C)C(C)O4)C2OC5)c2nc-3cs2)n1)C(N)=O (stereo not drawn) [Example 68]
16 | 1.0 (≈ 0.655 µM) | 0.5 (≈ 0.328 µM) | 0.03 (≈ 0.0197 µM) | C=C(NC(=O)c1csc(-c2nc3c(cc2OCCO)-c2nc(cs2)C(=O)NC(C(C)O)C(=O)NC(=C(C)OC)c2nc(cs2)C(=O)NC2c4nc(cs4)C(=O)NC(COC(=O)c4c5c6c(cccc6n4OCCO)COC(=O)C(OC4CC(C)(O)C(N(C)C)C(C)O4)C2OC5)c2nc-3cs2)n1)C(N)=O (stereo not drawn) [Example 77]
17 | 4.0 (≈ 2.49 µM) | 8.0 (≈ 4.98 µM) | 0.125 (≈ 0.0777 µM) | C=C(NC(=O)c1csc(-c2nc3c(cc2OCC(=O)N(C)C)-c2nc(cs2)C(=O)NC(C(C)O)C(=O)NC(=C(C)OC)c2nc(cs2)C(=O)NC2c4nc(cs4)C(=O)NC(COC(=O)c4c5c6c(cccc6n4OCC(=O)N(C)C)COC(=O)C(OC4CC(C)(O)C(N(C)C)C(C)O4)C2OC5)c2nc-3cs2)n1)C(N)=O (stereo not drawn) [Example 71]
18 | >128 | 16 (≈ 10.6 µM) | 0.5 (≈ 0.332 µM) | COC(C)=C1NC(=O)C(C(C)O)NC(=O)c2csc(n2)-c2cc(O)c(-c3nc(C(N)=O)cs3)nc2-c2csc(n2)C2COC(=O)c3c4c5c(cccc5n3OCCCCS(=O)(=O)O)COC(=O)C(OC3CC(C)(O)C(N(C)C)C(C)O3)C(OC4)C(NC(=O)c3csc1n3)c1nc(cs1)C(=O)N2 (stereo not drawn) [Example 59]
19 | >128 | 16 (≈ 9.65 µM) | 0.06 (≈ 0.0362 µM) | C=C(NC(=O)c1csc(-c2nc3c(cc2O)-c2nc(cs2)C(=O)NC(C(C)O)C(=O)NC(=C(C)OC)c2nc(cs2)C(=O)NC2c4nc(cs4)C(=O)NC(COC(=O)c4c5c6c(cccc6n4OCCCOC4OC(CO)C(O)C(O)C4O)COC(=O)C(OC4CC(C)(O)C(N(C)C)C(C)O4)C2OC5)c2nc-3cs2)n1)C(N)=O (stereo not drawn) [Example 58]
20 | 1.0 (≈ 0.603 µM) | 1.0 (≈ 0.603 µM) | 0.015 (≈ 0.00905 µM) | C=C(NC(=O)c1csc(-c2nc3c(cc2OCc2ccccc2)-c2nc(cs2)C(=O)NC(C(C)O)C(=O)NC(=C(C)OC)c2nc(cs2)C(=O)NC2c4nc(cs4)C(=O)NC(COC(=O)c4c5c6c(cccc6n4OCOCC[Si](C)(C)C)COC(=O)C(OC4CC(C)(O)C(N(C)C)C(C)O4)C2OC5)c2nc-3cs2)n1)C(N)=O (stereo not drawn) [Example 79]
